Measurements published in patent US8460685B2, “Method of improving the osteoinductivity of calcium phosphate” (Progentix Orthobiology B.V., priority 2005, dated 2013).

Tests used:
[1] = system: dorsal muscles of goats; test: Osteoinductive potential of TCP ceramic loaded with lithium chloride, intramuscular implantation in goats (histology, histomorphometry); format: in vivo; details: LiCl in TCP; improved osteoinductivity
Protocol: The osteoinductive potential of TCP ceramic loaded with lithium chloride was tested in a pilot study in muscle of goats. After sterilization (autoclaving at 121° C. for 30 minutes), a volume of 1.0 cc of 1-3 mm ceramic particles (granules) of each TCP-only, TCP with 5 mmol LiCl/100 g, TCP with 15 mmol LiCl/100 g and TCP with 45 mmol LiCl/100 g were implanted in dorsal muscles of 4 goats for 12 weeks (total 4 implants in each of 4 goats).
(§1) Twelve weeks after implantation the animals Were sacrificed and the implants were harvested with surrounding tissues and fixed in 1.5% glutaraldehyde in 0.14M cacodylate buffer. The fixed samples were dehydrated in a graded series of aqueous ethanol solutions (70%, 80%, 90%, 96% and 100%×2) and finally embedded in MMA. Non-decalcified sections (10-20 μm) were prepared and stained with methylene blue and basic fuchsin for histological observation and histomorphometrical analysis regarding bone formation.
Histomorphometry was performed on the sections across the middle of the implants with regard to the percentage of the formed bone in the available space.

[2] = system: dorsal muscles of goats; test: Osteoinductive potential of sodium fluoride-loaded TCP ceramic, intramuscular implantation in goats (histology, histomorphometry); format: in vivo; details: NaF in TCP; improved osteoinductivity
Protocol: The osteoinductive potential of sodium fluoride-loaded TCP ceramic was tested in a pilot study in muscles of goats. After sterilization (autoclaving at 121° C. for 30 minutes), a volume of 1.0 cc of 1-3 mm ceramic particles (granules) of each TCP-only, TCP with 8 mmol NaF/100 g, TCP with 16 mmol NaF/100 g and TCP with 24 mmol NaF/100 g were implanted in dorsal muscles of 4 goats for 12 weeks (total 4 implants in each of 4 goats).
as §1, with “were” for “Were”, “methyl methacrylate (MMA). Using standard procedures non-decalcified” for “MMA. Non-decalcified”, “made” for “prepared”
Histomorphometry was performed on the sections across the middle of the implants and to the percentage of the formed bone in the available space was measured using image analysis.

Structure (SMILES)	effective amount of trace element in TCP [1]	optimum amount of trace element in TCP [1]	effective amount of trace element in TCP [2]	optimum amount of trace element in TCP [2]
[Cl-].[Li+] [LiCl, lithium chloride]	5-45 mmol LiCl/100 g	around 15 mmol LiCl/100 g TCP	–	–
[F-].[Na+] [NaF, sodium fluoride]	–	–	8-24 mmol NaF/100 g	around 16 mmol NaF/100 g TCP
